Measurements as given in patent US11247990B1, “Bicyclic fused pyridine compounds as inhibitors of TAM kinases” (ARRAY BIOPHARMA INC., priority 2017, dated 2022).

How the values were obtained:
Details in all cases: averaged IC50
[1] = target: His-tagged recombinant human AXL cytoplasmic domain (Homo sapiens (Human), UniProt P30530); experiment: AXL Enzyme Assay (LanthaScreen Eu Kinase Binding, TR-FRET)
Experimental: (§1) Compounds of Formula I were screened for their ability to inhibit AXL kinase using Invitrogen's LanthaScreen™ Eu Kinase Binding technology. […] After a 60-minute incubation at 22° C., the reaction was measured using a PerkinElmer EnVision multimode plate reader via TR-FRET dual wavelength detection, and the percent of control (POC) was calculated using a ratiometric emission factor. […] The POC values are fit to a 4 parameter logistic curve and the IC50 value is point where the curve crosses 50 POC.

[2] = target: His-tagged recombinant human MER cytoplasmic domain (Homo sapiens (Human), UniProt Q12866); experiment: MER Enzyme Assay (LanthaScreen Eu Kinase Binding, TR-FRET)
Chain of His-tagged recombinant human MER cytoplasmic domain (Q12866 527-999): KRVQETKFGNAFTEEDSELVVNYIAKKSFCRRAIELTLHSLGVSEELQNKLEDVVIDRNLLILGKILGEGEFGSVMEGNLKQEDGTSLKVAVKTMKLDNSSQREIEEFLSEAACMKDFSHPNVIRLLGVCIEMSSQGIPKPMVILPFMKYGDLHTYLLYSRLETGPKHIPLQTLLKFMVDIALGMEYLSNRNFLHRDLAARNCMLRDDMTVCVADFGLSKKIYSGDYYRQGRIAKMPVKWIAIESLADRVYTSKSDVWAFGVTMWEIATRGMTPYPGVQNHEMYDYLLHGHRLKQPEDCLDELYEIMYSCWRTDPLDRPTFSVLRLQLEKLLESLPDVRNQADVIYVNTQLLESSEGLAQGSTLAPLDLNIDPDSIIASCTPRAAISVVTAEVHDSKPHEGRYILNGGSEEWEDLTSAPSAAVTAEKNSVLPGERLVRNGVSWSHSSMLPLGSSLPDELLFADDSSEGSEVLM
Experimental: as §1, with “MER” for “AXL”

[3] = target: GST-tagged recombinant human TYRO3 kinase domain (Homo sapiens (Human), UniProt Q06418); experiment: TYRO3 Enzyme Assay (LanthaScreen Eu Kinase Binding, TR-FRET)
Chain of GST-tagged recombinant human TYRO3 kinase domain (Q06418 518-790): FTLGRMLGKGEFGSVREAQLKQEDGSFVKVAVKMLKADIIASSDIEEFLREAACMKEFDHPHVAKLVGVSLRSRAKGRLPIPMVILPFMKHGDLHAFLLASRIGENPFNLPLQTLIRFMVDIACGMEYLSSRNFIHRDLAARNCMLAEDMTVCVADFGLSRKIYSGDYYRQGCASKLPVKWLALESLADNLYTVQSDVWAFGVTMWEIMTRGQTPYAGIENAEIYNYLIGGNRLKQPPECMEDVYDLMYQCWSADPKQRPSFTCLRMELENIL
Experimental: as §1, with “TYRO3” for “AXL”, “(POC)” for “(POC) was”, “were” for “are”

Chain of His-tagged recombinant human AXL cytoplasmic domain (P30530 473-894): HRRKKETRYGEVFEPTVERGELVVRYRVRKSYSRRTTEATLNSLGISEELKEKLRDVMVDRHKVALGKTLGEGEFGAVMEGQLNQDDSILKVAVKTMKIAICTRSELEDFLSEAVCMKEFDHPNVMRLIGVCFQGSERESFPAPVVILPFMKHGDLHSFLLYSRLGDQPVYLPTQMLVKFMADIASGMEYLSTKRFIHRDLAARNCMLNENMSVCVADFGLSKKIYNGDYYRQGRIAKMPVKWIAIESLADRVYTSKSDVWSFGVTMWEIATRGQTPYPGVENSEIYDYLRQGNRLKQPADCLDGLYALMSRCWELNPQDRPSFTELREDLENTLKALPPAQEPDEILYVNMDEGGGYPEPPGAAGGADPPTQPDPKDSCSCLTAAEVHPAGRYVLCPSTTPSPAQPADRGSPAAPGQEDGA

SMILES	IC50 [1]	IC50 [2]	IC50 [3]
CNc1cc2c(cn1)c(-c1ccc(CN3CCN(C)CC3)cc1)nn2[C@H]1CC[C@@H](Oc2ccc(=O)n(C)n2)CC1 [Example 27, 2-methyl-6-(((1s,4s)-4-(6-(methylamino)-3-(4-((4-methylpiperazin-1-yl)methyl)phenyl)-1H-pyrazolo[4,3-c]pyridin-1-yl)cyclohexyl)oxy)pyridazin-3(2H)-one]	< 0.01 µM	< 0.01 µM	
CCn1nc(O[C@H]2CC[C@@H](n3nc(-c4ccc(CN5CCN(C)CC5)cc4)c4cnc(NC)cc43)CC2)ccc1=O [Example 79, 2-ethyl-6-(((1s,4s)-4-(6-(methylamino)-3-(4-((4-methylpiperazin-1-yl)methyl)phenyl)-1H-pyrazolo[4,3-c]pyridin-1-yl)cyclohexyl)oxy)pyridazin-3(2H)-one]	< 0.01 µM		
CNc1cc2c(cn1)c(-c1cnn(C)c1)nn2[C@H]1CC[C@@H](Oc2ncccc2F)CC1 [Example 122, 1-((1s,4s)-4-((3-fluoropyridin-2-yl)oxy)cyclohexyl)-N-methyl-3-(1-methyl-1H-pyrazol-4-yl)-1H-pyrazolo[4,3-c]pyridin-6-amine]	< 0.01 µM	< 0.01 µM	
CNc1cc2c(cn1)c(-c1cnn(C)c1)nn2[C@H]1CC[C@@H](Oc2ncccc2C(F)(F)F)CC1 [Example 125, N-methyl-3-(1-methyl-1H-pyrazol-4-yl)-1-((1s,4s)-4-((3-(trifluoromethyl)pyridin-2-yl)oxy)cyclohexyl)-1H-pyrazolo[4,3-c]pyridin-6-amine]	< 0.01 µM	< 0.01 µM	
CNc1cc2c(cn1)c(-c1cnn(C)c1)nn2[C@H]1CC[C@@H](Oc2cccnc2C)CC1 [Example 135, N-methyl-3-(1-methyl-1H-pyrazol-4-yl)-1-((1s,4s)-4-((2-methylpyridin-3-yl)oxy)cyclohexyl)-1H-pyrazolo[4,3-c]pyridin-6-amine]	< 0.01 µM	< 0.01 µM	
CCc1ncccc1O[C@H]1CC[C@@H](n2nc(-c3cnn(C)c3)c3cnc(NC)cc32)CC1 [Example 145, 1-((1s,4s)-4-((2-ethylpyridin-3-yl)oxy)cyclohexyl)-N-methyl-3-(1-methyl-1H-pyrazol-4-yl)-1H-pyrazolo[4,3-c]pyridin-6-amine]	< 0.01 µM	< 0.01 µM	
CNc1cc2c(cn1)c(-c1cnn(C)c1)nn2[C@H]1CC[C@@H](Oc2cccnc2F)CC1 [Example 146, 1-((1s,4s)-4-((2-fluoropyridin-3-yl)oxy)cyclohexyl)-N-methyl-3-(1-methyl-1H-pyrazol-4-yl)-1H-pyrazolo[4,3-c]pyridin-6-amine]	< 0.01 µM	< 0.01 µM	
CNc1cc2c(cn1)c(-c1cnn(C)c1)nn2[C@H]1CC[C@@H](Oc2nccnc2C)CC1 [Example 150, N-methyl-3-(1-methyl-1H-pyrazol-4-yl)-1-((1s,4s)-4-((3-methylpyrazin-2-yl)oxy)cyclohexyl)-1H-pyrazolo[4,3-c]pyridin-6-amine]	< 0.01 µM	< 0.01 µM	
CNc1cc2c(cn1)c(-c1cnn(C)c1)nn2[C@H]1CC[C@@H](Oc2cc(C(F)(F)F)ccn2)CC1 [Example 170, N-methyl-3-(1-methyl-1H-pyrazol-4-yl)-1-((1s,4s)-4-((4-(trifluoromethyl)pyridin-2-yl)oxy)cyclohexyl)-1H-pyrazolo[4,3-c]pyridin-6-amine]	< 0.01 µM	< 0.01 µM	
Cn1cc(-c2nn([C@H]3CC[C@@H](Oc4ncccc4C(F)(F)F)CC3)c3cc(Nc4ccccc4)ncc23)cn1 [Example 306, 3-(1-methyl-1H-pyrazol-4-yl)-N-phenyl-1-((1s,4s)-4-((3-(trifluoromethyl)pyridin-2-yl)oxy)cyclohexyl)-1H-pyrazolo[4,3-c]pyridin-6-amine]	1 to 10 µM		
CNc1cc2c(cn1)c(-c1cnn(C)c1)nn2[C@H]1CC[C@@H](Oc2ccc(F)cc2CN(C)C)CC1 [Example 370, 1-((1s,4s)-4-(2-((dimethylamino)methyl)-4-fluorophenoxy)cyclohexyl)-N-methyl-3-(1-methyl-1H-pyrazol-4-yl)-1H-pyrazolo[4,3-c]pyridin-6-amine]	< 0.01 µM		
Cn1cc(-c2nn([C@H]3CC[C@@H](Oc4ccccc4F)CC3)c3cc(NCCC4CC4)ncc23)cn1 [Example 402, N-(2-cyclopropylethyl)-1-((1s,4s)-4-(2-fluorophenoxy)cyclohexyl)-3-(1-methyl-1H-pyrazol-4-yl)-1H-pyrazolo[4,3-c]pyridin-6-amine]	1 to 10 µM		
CNc1cc2c(cn1)c(-c1cnn(C)c1)nn2[C@H]1CC[C@@H](Oc2cccc(C(=O)NC(C)C)c2)CC1 [Example 455, N-isopropyl-3-(((1s,4s)-4-(3-(1-methyl-1H-pyrazol-4-yl)-6-(methylamino)-1H-pyrazolo[4,3-c]pyridin-1-yl)cyclohexyl)oxy)benzamide]			1 to 10 µM
CNc1cc2c(cn1)c(-c1cnn(C)c1)nn2[C@H]1CC[C@@H](Oc2ccc(C(=O)N(C)C)cc2)CC1 [Example 457, N,N-dimethyl-4-(((1s,4s)-4-(3-(1-methyl-1H-pyrazol-4-yl)-6-(methylamino)-1H-pyrazolo[4,3-c]pyridin-1-yl)cyclohexyl)oxy)benzamide]			1 to 10 µM
CNc1cc2c(cn1)c(-c1cnn(C)c1)nn2[C@H]1CC[C@@H](Oc2ccc(C(=O)NC(C)C)cc2)CC1 [Example 458, N-isopropyl-4-(((1s,4s)-4-(3-(1-methyl-1H-pyrazol-4-yl)-6-(methylamino)-1H-pyrazolo[4,3-c]pyridin-1-yl)cyclohexyl)oxy)benzamide]			1 to 10 µM
CNc1cc2c(cn1)c(-c1cnn(C)c1)nn2[C@H]1CC[C@@H](Oc2ccc(C(=O)NCCOC)cc2)CC1 [Example 459, N-(2-methoxyethyl)-4-(((1s,4s)-4-(3-(1-methyl-1H-pyrazol-4-yl)-6-(methylamino)-1H-pyrazolo[4,3-c]pyridin-1-yl)cyclohexyl)oxy)benzamide]			1 to 10 µM
CCNc1cc2c(cn1)c(-c1cnn(C)c1)nn2[C@H]1CC[C@@H](Oc2ccc(C(=O)NC)cc2F)CC1 [Example 460, 4-(((1s,45)-4-(6-(ethylamino)-3-(1-methyl-1H-pyrazol-4-yl)-1H-pyrazolo[4,3-c]pyridin-1-yl)cyclohexyl)oxy)-3-fluoro-N-methylbenzamide]	< 0.01 µM		
CNc1cc2c(cn1)c(-c1cnn(C)c1)nn2[C@H]1CC[C@@H](Oc2cccc(C(=O)NC(C)C)c2F)CC1 [Example 466, 2-fluoro-N-isopropyl-3-(((1s,4s)-4-(3-(1-methyl-1H-pyrazol-4-yl)-6-(methylamino)-1H-pyrazolo[4,3-c]pyridin-1-yl)cyclohexyl)oxy)benzamide]			1 to 10 µM
CCNc1cc2c(cn1)c(-c1cnn(C)c1)nn2[C@H]1CC[C@H](Oc2cccc(F)c2)CC1 [Example 475, N-ethyl-1-((1r,4r)-4-(3-fluorophenoxy)cyclohexyl)-3-(1-methyl-1H-pyrazol-4-yl)-1H-pyrazolo[4,3-c]pyridin-6-amine]			1 to 10 µM
Cn1cc(-c2nn([C@H]3CC[C@@H](Oc4cccc(F)c4F)CC3)c3cc(Nc4ccccc4)ncc23)cn1 [Example 486, 1-((1s,4s)-4-(2,3-difluorophenoxy)cyclohexyl)-3-(1-methyl-1H-pyrazol-4-yl)-N-phenyl-1H-pyrazolo[4,3-c]pyridin-6-amine]	1 to 10 µM		
